From ChEMBL document CHEMBL1145679, “Perhydrogenation of tabersonine, ans Aspidiosperma indole alkaloid” (J Nat Prod, 1997)
Activity calls are given as the source filed them. No cut-off for these calls is given here.

Legend:
[1] = Displacement of radioligand from AMPA receptor by liquid scintillation spectrometry
[2] = target: D(1A) dopamine receptor (Homo sapiens) (UniProt P21728); test: Displacement of radioligand from dopamine D1 receptor by liquid scintillation spectrometry
[3] = target: D(2) dopamine receptor (Homo sapiens) (UniProt P14416); test: Displacement of radioligand from dopamine D2 receptor by liquid scintillation spectrometry
[4] = target: 5-hydroxytryptamine receptor 2A (Homo sapiens, UniProt P28223); test: Displacement of radioligand from 5HT2 receptor by liquid scintillation spectrometry
[5] = target: T1, Glucocorticoid receptor (Homo sapiens) (UniProt P04150); test: Displacement of radioligand from glucocorticoid receptor by liquid scintillation spectrometry
T1 sequence (whole entry): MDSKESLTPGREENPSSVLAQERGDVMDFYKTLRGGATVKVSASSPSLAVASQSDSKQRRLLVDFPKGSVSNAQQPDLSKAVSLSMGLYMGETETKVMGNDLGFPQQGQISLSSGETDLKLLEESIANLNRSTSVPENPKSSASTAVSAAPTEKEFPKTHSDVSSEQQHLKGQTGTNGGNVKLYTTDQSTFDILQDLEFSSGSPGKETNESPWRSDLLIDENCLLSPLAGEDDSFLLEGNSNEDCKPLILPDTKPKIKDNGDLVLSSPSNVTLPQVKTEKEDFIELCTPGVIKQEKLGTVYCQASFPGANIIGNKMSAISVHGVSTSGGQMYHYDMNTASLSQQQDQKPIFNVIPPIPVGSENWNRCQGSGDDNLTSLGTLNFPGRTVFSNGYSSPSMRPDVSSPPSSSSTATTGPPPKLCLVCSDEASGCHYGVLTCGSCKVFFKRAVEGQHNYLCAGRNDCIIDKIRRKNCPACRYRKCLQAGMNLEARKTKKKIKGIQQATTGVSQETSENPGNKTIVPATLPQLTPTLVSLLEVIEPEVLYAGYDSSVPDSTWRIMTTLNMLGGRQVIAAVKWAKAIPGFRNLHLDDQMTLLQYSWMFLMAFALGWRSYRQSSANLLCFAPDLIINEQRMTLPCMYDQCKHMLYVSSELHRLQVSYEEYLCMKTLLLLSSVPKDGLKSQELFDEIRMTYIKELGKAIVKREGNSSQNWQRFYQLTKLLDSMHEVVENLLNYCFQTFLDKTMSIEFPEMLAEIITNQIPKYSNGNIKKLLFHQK

[6] = target: T2, 5-hydroxytryptamine receptor 3A (Homo sapiens, UniProt P46098); test: Displacement of radioligand from 5HT3 receptor by liquid scintillation spectrometry
T2 sequence (P46098 whole entry): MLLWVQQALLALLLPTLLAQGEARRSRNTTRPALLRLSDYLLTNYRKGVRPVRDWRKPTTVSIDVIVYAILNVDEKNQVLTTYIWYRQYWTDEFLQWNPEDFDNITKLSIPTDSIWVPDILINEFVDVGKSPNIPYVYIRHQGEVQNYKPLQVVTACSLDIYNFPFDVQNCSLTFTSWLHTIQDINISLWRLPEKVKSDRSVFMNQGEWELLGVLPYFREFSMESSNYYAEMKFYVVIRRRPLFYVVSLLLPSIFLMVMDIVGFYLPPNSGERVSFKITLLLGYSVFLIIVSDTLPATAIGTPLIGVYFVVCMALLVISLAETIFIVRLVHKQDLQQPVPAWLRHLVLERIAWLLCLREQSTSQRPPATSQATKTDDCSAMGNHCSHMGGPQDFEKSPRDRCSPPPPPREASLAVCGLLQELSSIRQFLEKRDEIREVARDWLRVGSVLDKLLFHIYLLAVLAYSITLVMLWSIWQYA

[7] = Displacement of radioligand from calcium channel by liquid scintillation spectrometry
[8] = Displacement of radioligand from potassium channel by liquid scintillation spectrometry
[9] = Displacement of radioligand from NMDA receptor by liquid scintillation spectrometry
[10] = target: T3, 5-hydroxytryptamine receptor 1A (Homo sapiens, UniProt P08908); test: Displacement of radioligand from 5HT1A receptor by liquid scintillation spectrometry
T3 sequence (P08908 whole entry): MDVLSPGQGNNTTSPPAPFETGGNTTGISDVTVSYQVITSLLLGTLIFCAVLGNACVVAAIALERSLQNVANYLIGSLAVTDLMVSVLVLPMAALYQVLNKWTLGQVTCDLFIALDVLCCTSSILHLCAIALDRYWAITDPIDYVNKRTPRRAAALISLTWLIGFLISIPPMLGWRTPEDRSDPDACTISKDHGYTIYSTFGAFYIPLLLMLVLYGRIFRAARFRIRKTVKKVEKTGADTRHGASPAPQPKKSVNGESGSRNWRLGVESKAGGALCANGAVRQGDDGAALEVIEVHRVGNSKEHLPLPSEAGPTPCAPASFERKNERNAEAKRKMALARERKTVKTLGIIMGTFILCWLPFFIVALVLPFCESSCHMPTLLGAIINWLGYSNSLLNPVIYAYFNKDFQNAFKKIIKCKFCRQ

[11] = Displacement of radioligand from GABAB receptor by liquid scintillation spectrometry
[12] = Displacement of radioligand from rat sodium channel batrachotoxin binding site by liquid scintillation spectrometry
[13] = target: T4, Adrenergic receptor alpha-2 (Rattus norvegicus, UniProt P22086+P19328+P22909); test: Displacement of radioligand from rat alpha2 adrenergic receptor by liquid scintillation spectrometry
T4 sequence (P22086 whole entry): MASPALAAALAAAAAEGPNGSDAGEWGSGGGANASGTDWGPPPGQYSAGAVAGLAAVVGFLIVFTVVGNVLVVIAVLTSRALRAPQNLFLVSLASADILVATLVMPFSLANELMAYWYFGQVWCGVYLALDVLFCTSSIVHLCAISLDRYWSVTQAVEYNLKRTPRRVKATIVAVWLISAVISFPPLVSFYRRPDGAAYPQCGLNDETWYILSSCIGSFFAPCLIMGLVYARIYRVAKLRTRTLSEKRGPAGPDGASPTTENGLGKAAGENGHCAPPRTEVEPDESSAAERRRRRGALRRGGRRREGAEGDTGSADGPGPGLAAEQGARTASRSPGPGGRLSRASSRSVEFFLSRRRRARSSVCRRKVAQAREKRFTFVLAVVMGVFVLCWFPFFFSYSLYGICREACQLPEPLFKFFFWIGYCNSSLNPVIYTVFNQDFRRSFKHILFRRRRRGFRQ
T4 sequence (P19328 whole entry): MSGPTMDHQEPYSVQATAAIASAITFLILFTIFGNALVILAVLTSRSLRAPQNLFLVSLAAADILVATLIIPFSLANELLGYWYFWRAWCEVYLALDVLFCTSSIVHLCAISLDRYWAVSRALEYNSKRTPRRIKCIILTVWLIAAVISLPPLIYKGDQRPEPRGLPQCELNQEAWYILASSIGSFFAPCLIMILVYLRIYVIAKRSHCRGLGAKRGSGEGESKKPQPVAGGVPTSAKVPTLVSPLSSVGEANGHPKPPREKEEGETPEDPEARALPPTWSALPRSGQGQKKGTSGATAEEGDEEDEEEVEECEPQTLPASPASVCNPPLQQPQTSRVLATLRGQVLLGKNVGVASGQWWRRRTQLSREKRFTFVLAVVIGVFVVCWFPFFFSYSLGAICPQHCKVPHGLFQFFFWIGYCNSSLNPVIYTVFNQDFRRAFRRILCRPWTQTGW
T4 sequence (P22909 whole entry): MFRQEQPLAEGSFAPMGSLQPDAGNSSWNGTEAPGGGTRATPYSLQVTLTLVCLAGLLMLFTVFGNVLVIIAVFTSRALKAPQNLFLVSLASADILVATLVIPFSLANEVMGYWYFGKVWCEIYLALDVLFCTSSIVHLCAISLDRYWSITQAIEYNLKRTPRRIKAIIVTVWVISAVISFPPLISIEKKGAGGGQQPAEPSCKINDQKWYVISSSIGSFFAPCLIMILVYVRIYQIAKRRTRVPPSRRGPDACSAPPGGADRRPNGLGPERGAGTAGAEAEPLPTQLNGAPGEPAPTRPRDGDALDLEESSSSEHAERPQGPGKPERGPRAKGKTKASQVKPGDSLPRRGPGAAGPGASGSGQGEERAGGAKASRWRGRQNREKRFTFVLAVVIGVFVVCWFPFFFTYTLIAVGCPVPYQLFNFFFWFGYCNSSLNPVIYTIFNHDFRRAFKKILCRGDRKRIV

[14] = Displacement of radioligand from GABAA receptor by liquid scintillation spectrometry
[15] = Displacement of radioligand from glycine receptor by liquid scintillation spectrometry
[16] = target: T5, Adrenergic receptor alpha-1 (Rattus norvegicus, UniProt P15823+P23944+P43140); test: Displacement of radioligand from rat alpha1 adrenergic receptor by liquid scintillation spectrometry
T5 sequence (P15823 whole entry): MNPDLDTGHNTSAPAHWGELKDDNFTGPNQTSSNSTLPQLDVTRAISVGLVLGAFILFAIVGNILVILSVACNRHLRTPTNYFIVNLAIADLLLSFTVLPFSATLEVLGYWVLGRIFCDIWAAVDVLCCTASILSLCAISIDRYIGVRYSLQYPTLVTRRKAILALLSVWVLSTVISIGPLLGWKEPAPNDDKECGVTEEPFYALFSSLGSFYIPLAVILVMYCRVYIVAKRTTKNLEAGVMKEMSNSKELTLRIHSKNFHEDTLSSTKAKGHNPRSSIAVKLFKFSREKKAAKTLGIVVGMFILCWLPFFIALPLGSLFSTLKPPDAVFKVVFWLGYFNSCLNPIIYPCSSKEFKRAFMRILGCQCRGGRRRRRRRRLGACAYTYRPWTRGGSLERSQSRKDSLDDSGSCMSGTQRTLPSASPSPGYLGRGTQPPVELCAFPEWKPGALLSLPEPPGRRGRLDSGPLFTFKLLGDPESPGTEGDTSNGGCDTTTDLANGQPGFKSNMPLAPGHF
T5 sequence (P23944 whole entry): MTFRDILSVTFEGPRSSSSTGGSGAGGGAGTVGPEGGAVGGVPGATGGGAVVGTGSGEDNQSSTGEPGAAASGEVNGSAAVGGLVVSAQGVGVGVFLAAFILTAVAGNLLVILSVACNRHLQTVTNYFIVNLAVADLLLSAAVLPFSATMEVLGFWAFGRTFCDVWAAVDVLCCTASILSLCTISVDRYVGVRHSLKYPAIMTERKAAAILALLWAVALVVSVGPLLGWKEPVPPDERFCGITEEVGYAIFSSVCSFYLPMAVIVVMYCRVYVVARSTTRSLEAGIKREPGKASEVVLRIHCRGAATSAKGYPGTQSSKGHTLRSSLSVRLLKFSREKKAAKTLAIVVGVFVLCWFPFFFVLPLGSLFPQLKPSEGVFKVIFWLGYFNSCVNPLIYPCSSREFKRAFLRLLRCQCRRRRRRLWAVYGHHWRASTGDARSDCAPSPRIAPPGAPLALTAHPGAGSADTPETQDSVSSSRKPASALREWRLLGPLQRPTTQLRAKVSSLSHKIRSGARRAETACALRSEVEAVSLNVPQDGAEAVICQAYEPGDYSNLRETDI
T5 sequence (P43140 whole entry): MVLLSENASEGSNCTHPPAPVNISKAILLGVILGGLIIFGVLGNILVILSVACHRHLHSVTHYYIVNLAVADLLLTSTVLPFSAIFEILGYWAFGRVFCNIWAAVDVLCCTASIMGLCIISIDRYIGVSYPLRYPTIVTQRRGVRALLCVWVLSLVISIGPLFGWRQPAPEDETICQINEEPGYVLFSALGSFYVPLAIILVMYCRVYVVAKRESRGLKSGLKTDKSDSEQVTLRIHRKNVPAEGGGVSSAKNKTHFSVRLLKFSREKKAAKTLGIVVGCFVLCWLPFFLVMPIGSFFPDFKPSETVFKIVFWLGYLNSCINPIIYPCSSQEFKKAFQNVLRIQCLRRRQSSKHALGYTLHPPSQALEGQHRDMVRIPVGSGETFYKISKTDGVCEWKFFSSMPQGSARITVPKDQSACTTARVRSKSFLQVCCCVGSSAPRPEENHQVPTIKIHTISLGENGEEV

[17] = Displacement of radioligand from muscarinic receptor by liquid scintillation spectrometry

Sequence of D(1A) dopamine receptor (Homo sapiens) (P21728 whole entry): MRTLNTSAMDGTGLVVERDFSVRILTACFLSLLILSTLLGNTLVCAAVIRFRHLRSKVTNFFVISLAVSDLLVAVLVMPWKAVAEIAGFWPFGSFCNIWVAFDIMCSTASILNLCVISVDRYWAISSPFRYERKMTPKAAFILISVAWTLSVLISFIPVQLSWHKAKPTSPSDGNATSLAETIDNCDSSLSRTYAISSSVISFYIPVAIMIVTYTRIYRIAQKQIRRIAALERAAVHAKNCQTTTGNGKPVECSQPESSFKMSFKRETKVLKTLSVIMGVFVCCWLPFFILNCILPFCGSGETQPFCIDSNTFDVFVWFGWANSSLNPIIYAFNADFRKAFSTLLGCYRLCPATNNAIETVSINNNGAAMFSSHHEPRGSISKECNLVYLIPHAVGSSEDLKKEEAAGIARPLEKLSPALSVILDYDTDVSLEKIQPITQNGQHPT
Sequence of 5-hydroxytryptamine receptor 2A (P28223 whole entry): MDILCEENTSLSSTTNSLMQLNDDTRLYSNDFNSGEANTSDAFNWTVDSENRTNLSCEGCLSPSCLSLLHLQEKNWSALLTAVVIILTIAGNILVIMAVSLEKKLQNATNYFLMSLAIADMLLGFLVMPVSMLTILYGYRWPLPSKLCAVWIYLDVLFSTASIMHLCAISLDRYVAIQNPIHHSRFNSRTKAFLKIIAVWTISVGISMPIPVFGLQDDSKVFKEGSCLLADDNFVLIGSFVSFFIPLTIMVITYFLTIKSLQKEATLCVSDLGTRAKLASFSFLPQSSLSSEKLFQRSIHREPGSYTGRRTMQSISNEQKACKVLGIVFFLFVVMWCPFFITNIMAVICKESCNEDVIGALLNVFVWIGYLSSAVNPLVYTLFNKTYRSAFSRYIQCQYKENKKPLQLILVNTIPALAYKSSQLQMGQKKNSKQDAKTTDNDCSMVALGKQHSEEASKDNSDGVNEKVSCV
Sequence of D(2) dopamine receptor (Homo sapiens) (P14416 whole entry): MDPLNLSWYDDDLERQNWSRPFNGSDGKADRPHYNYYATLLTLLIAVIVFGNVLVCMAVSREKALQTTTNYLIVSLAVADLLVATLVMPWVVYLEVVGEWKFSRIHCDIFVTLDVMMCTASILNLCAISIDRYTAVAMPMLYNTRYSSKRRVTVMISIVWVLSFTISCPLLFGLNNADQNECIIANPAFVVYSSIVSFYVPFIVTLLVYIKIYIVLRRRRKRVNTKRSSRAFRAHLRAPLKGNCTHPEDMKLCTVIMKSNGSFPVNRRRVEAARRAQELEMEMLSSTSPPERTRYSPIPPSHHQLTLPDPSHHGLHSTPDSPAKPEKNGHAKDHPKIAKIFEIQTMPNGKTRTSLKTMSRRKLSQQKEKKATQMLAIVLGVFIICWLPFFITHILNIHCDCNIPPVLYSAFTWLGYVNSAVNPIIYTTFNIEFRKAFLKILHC

SMILES	Activity [1]	Activity [2]	Activity [3]	IC50 [4] [µM]	Activity [5]	IC50 [6] [µM]	Activity [7]	Activity [8]	Activity [9]	IC50 [10] [µM]	Activity [11]	Ki [12] [µM]	Ki [13] [µM]	Activity [14]	Activity [15]	Ki [16] [µM]	Activity [17]
CC[C@]12CCCN3CC[C@@]4([C@H]5CCCC[C@H]5N[C@H]4[C@@H](C(=O)[O-])C1)[C@@H]32.[Na+]	inactive	inactive	inactive	> 10	inactive	> 100	inactive	inactive	inactive	> 10	inactive	> 10	> 100	inactive	inactive	> 100	inactive
COc1ccc(C(=O)O[C@H]2CC[C@@]3(C)[C@@H]4CC[C@H]5[C@]6(O)C[C@H](O)[C@@]7(O)[C@@H](CN8C[C@@H](C)CC[C@H]8[C@@]7(C)O)[C@]6(O)C[C@@]53O[C@]24O)cc1OC [VERATRIDINE]	–	–	–	–	–	–	–	–	–	–	–	2.1	–	–	–	–	–
CC[C@]12CCCN3CC[C@@]4([C@H]5CCCC[C@H]5N[C@H]4[C@@H](C(=O)OC)C1)[C@@H]32.Cl.Cl	inactive	inactive	inactive	> 10	inactive	> 100	inactive	inactive	inactive	> 10	inactive	3.7	> 100	inactive	inactive	> 100	inactive
